# Experimental data from paper PMC3377984 (Journal of Molecular Neuroscience, 2012).
# Tests used:
# [1] = Caco-2 bidirectional permeability assay; type: in vitro ADME, human; details: human
# Caco-2 cells = assay: Caco-2 bidirectional permeability assay; type: in vitro ADME, human
# rat hippocampal cultures = assay: Neuroprotection from acute glutamate toxicity, CFDA neuronal viability assay; type: cell-based; details: initial testing of the core compound; assay not specified
# Mouse scPTZ = assay: Subcutaneous pentylenetetrazol; type: in vivo
# Mouse MES = assay: Maximal electroshock test; type: in vivo; details: at 100 mg/kg
# Mouse 6-Hz test = assay: 6-Hz seizure test, mouse; type: in vivo; details: at 100 mg/kg
# Rat MES = assay: Maximal electroshock test; type: in vivo; details: at 30 mg/kg
SMILES,Papp A→B at 5 µM [1] [×10⁻⁶ cm/s],Permeability classification (Caco-2 cells),potency for neuroprotection (rat hippocampal cultures) [nM],Mouse scPTZ (s.c. EC50) (Mouse scPTZ; PTZ 85 mg/kg s.c.) [mg/kg],activity in the mouse pentylenetetrazol model (Mouse scPTZ; at 300 mg/kg i.p.),"Mouse MES (i.p.), animals protected/tested (Mouse MES)","Mouse 6-Hz test (i.p.), animals protected/tested (Mouse 6-Hz test)","Rat MES (oral), animals protected/tested (Rat MES)",Papp B→A at 5 µM [1] [×10⁻⁶ cm/s],efflux ratio at 5 µM [1],Significant efflux (Caco-2 cells)
"CC(C)NCC(O)COc1cccc2ccccc12 (stereo not shown) [Propranolol control, Propranolol]",17.1,High,,,,,,,,,
"NS(=O)(=O)NCC(O)c1ccccc1F (stereo not shown) [AND-171, 2-(2-Fluorophenyl)-2-hydroxyethylsulfamide]",,,30 to 100,>300,no demonstrated activity,1/3 at 100 mg/kg,1/4 at 100 mg/kg,1/4 at 30 mg/kg,,,
"C[C@H]1O[C@@H](O[C@H]2[C@@H](O)C[C@H](O[C@H]3[C@@H](O)C[C@H](O[C@H]4CC[C@@]5(C)[C@H](CC[C@@H]6[C@@H]5C[C@@H](O)[C@]5(C)[C@@H](C7=CC(=O)OC7)CC[C@]65O)C4)O[C@@H]3C)O[C@@H]2C)C[C@H](O)[C@@H]1O [Digoxin control, Digoxin]",0.62,Low,,,,,,,12.5,20.2,Yes
